Laboratory results published in ChEMBL document CHEMBL6127111, “First-in-Class Small Molecule Degrader of Pregnane X Receptor Enhances Chemotherapy Efficacy” (J Med Chem, 2024).

Experiments:
[1] = molecular target: von Hippel-Lindau disease tumor suppressor/Nuclear receptor subfamily 1 group I member 2 (Homo sapiens, UniProt O75469+P40337); assay: PROTAC activity at N-terminal PXR/VHL in human SNU-C4 HiBiT-PXR KI cell assessed as reduction in PXR protein level incubated for 24 hrs by Western blot analysis; assay type: cell-based
[2] = Cytotoxicity against human SNU-C4 HiBiT-PXR KI cell assessed as cell viability incubated for 24 hrs by celltiter-glo luminescent assay; assay type: functional
[3] = Cytotoxicity against human SNU-C4 HiBiT-PXR KI cell assessed as cell viability incubated for 72 hrs by celltiter-glo luminescent assay; assay type: functional
[4] = Cytotoxicity against human SNU-C4 HiBiT-PXR KI cell assessed as cell viability at 30 uM incubated for 24 hrs by celltiter-glo luminescent assay relative to control; assay type: functional; conditions: read-out: Activity
[5] = Cytotoxicity against human SNU-C4 HiBiT-PXR KI cell assessed as cell viability at 30 uM incubated for 72 hrs by celltiter-glo luminescent assay relative to control; assay type: functional; conditions: read-out: Activity
[6] = molecular target: T1, Nuclear receptor subfamily 1 group I member 2 (Homo sapiens, UniProt O75469); assay: Displacement of BODIPY FL-probe from GST-tagged PXR LBD (unknown origin) incubated for 90 mins by TR-FRET assay
T1 sequence (O75469 whole entry): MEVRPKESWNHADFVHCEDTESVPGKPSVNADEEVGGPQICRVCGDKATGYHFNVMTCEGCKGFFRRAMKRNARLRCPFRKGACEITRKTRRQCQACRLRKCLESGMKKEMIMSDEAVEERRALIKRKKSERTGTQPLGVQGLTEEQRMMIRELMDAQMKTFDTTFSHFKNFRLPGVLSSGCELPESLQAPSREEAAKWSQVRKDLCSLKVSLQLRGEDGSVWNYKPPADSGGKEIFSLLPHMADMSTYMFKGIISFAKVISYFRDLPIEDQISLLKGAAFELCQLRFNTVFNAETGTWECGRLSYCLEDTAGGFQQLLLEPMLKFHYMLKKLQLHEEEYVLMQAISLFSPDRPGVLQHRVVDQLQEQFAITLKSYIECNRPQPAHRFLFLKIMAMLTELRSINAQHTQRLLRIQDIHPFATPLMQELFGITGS

Chain of von Hippel-Lindau disease tumor suppressor/Nuclear receptor subfamily 1 group I member 2 (P40337 whole entry, one chain of several): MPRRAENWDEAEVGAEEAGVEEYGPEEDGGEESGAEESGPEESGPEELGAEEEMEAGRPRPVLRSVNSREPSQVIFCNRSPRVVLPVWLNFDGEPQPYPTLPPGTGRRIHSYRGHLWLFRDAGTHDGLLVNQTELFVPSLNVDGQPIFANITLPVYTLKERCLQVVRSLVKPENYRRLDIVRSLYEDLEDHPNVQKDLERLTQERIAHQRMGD

SMILES	DC50 [1]	CC50 [2]	CC50 [3]	viability at 30 µM [4]	viability at 30 µM [5]	Activity [6]
COc1cc(OCCCCCCOCCOCCOCCCCCC(=O)N[C@H](C(=O)N2C[C@H](O)C[C@H]2C(=O)NCc2ccc(-c3scnc3C)cc2)C(C)(C)C)c(C)cc1-n1nnc(S(=O)(=O)c2ccc(C(C)(C)C)cc2)c1C	> 30 µM	> 30 µM	> 30 µM			
CCC[C@H](CC)Oc1ccc(C(C)(C)C)cc1NC(=O)c1nnn(-c2cc(C)c(OC)cc2OC)c1C	> 30 µM	> 30 µM	> 30 µM	99.3%	106%	
COc1cc(OCCOCCOCCC(=O)N[C@H](C(=O)N2C[C@H](O)C[C@H]2C(=O)NCc2ccc(-c3scnc3C)cc2)C(C)(C)C)c(C)cc1-n1nnc(S(=O)(=O)c2ccc(C(C)(C)C)cc2)c1C	> 30 µM	> 30 µM	> 30 µM		98.9%	
COc1cc(OCC(=O)N[C@H](C(=O)N2C[C@H](O)C[C@H]2C(=O)NCc2ccc(-c3scnc3C)cc2)C(C)(C)C)c(C)cc1-n1nnc(S(=O)(=O)c2ccc(C(C)(C)C)cc2)c1C	> 30 µM	> 30 µM	> 30 µM			
COc1cc(OCCOCCOCCOCCOCCOCCC(=O)N[C@H](C(=O)N2C[C@H](O)C[C@H]2C(=O)NCc2ccc(-c3scnc3C)cc2)C(C)(C)C)c(C)cc1-n1nnc(S(=O)(=O)c2ccc(C(C)(C)C)cc2)c1C	> 30 µM	> 30 µM	> 30 µM			
CCC[C@H](CC)Oc1ccc(C(=O)NCCOCCOCCOCCOCC(=O)N[C@H](C(=O)N2C[C@H](O)C[C@H]2C(=O)NCc2ccc(-c3scnc3C)cc2)C(C)(C)C)cc1NC(=O)c1nnn(-c2cc(OC)ccc2OC)c1C	> 30 µM	> 30 µM	> 30 µM	100%	84.1%	
CCC[C@H](CC)Oc1ccc(C(=O)NCCOCCOCCOCC(=O)N[C@H](C(=O)N2C[C@H](O)C[C@H]2C(=O)NCc2ccc(-c3scnc3C)cc2)C(C)(C)C)cc1NC(=O)c1nnn(-c2cc(OC)ccc2OC)c1C	> 30 µM	> 30 µM	> 30 µM	98.3%	89.1%	
COc1cc(OCC(=O)NCCOCCOCCOCCOCC(=O)N[C@H](C(=O)N2C[C@H](O)C[C@H]2C(=O)NCc2ccc(-c3scnc3C)cc2)C(C)(C)C)c(C)cc1-n1nnc(S(=O)(=O)c2ccc(C(C)(C)C)cc2)c1C	> 30 µM	> 30 µM	> 30 µM			
CCCCOc1ccc(C(C)(C)C)cc1NC(=O)c1nnn(-c2cc(C)c(OCCCCCCOCCOCC(=O)N[C@H](C(=O)N3C[C@H](O)C[C@H]3C(=O)NCc3ccc(-c4scnc4C)cc3)C(C)(C)C)cc2OC)c1C		> 30 µM	> 30 µM	96.7%	91.2%	
COc1cc(OCCCCCCOCCOCC(=O)N[C@H](C(=O)N2C[C@H](O)C[C@H]2C(=O)NCc2ccc(-c3scnc3C)cc2)C(C)(C)C)c(C)cc1-n1nnc(S(=O)(=O)c2ccc(C(C)(C)C)cc2)c1C		> 30 µM	> 30 µM			
COc1cc(OCCCCCCOCCOCCOCCOCCOCCOCC(=O)N[C@H](C(=O)N2C[C@H](O)C[C@H]2C(=O)NCc2ccc(-c3scnc3C)cc2)C(C)(C)C)c(C)cc1-n1nnc(S(=O)(=O)c2ccc(C(C)(C)C)cc2)c1C	> 30 µM	> 30 µM	> 30 µM			
CCC[C@H](CC)Oc1ccc(C(C)(C)C)cc1NC(=O)c1nnn(-c2cc(OC)ccc2OC)c1C	> 30 µM	> 30 µM	> 30 µM	95.7%	98.7%	
COc1cc(OCCCC(=O)N[C@H](C(=O)N2C[C@H](O)C[C@H]2C(=O)NCc2ccc(-c3scnc3C)cc2)C(C)(C)C)c(C)cc1-n1nnc(S(=O)(=O)c2ccc(C(C)(C)C)cc2)c1C	> 30 µM	> 30 µM	> 30 µM		95.4%	
CCC[C@H](CC)Oc1ccc(C(=O)NCCCCCCCCC(=O)N[C@H](C(=O)N2C[C@H](O)C[C@H]2C(=O)NCc2ccc(-c3scnc3C)cc2)C(C)(C)C)cc1NC(=O)c1nnn(-c2cc(OC)ccc2OC)c1C	> 30 µM	> 30 µM	> 30 µM	102%	104%	
CCC[C@H](CC)Oc1ccc(C(=O)N[C@H](C(=O)N2C[C@H](O)C[C@H]2C(=O)NCc2ccc(-c3scnc3C)cc2)C(C)(C)C)cc1NC(=O)c1nnn(-c2cc(OC)ccc2OC)c1C	> 30 µM	> 30 µM	> 30 µM	99.9%	101%	
COc1cc(OCCCCCCOCCCCCOCCCCCC(=O)N[C@H](C(=O)N2C[C@H](O)C[C@H]2C(=O)NCc2ccc(-c3scnc3C)cc2)C(C)(C)C)c(C)cc1-n1nnc(S(=O)(=O)c2ccc(C(C)(C)C)cc2)c1C		> 30 µM	> 30 µM		94.3%	
CCC[C@H](CC)Oc1ccc(C(=O)NCCCCC(=O)N[C@H](C(=O)N2C[C@H](O)C[C@H]2C(=O)NCc2ccc(-c3scnc3C)cc2)C(C)(C)C)cc1NC(=O)c1nnn(-c2cc(OC)ccc2OC)c1C	> 30 µM	> 30 µM	> 30 µM	101%	98.9%	
COc1cc(OCCOCCC(=O)N[C@H](C(=O)N2C[C@H](O)C[C@H]2C(=O)NCc2ccc(-c3scnc3C)cc2)C(C)(C)C)c(C)cc1-n1nnc(S(=O)(=O)c2ccc(C(C)(C)C)cc2)c1C	> 30 µM	> 30 µM	> 30 µM			
COc1cc(OCCCCCCCC(=O)N[C@H](C(=O)N2C[C@H](O)C[C@H]2C(=O)NCc2ccc(-c3scnc3C)cc2)C(C)(C)C)c(C)cc1-n1nnc(S(=O)(=O)c2ccc(C(C)(C)C)cc2)c1C	> 30 µM	> 30 µM	> 30 µM			
CC(=O)N[C@H](C(=O)N1C[C@H](O)C[C@H]1C(=O)NCc1ccc(-c2scnc2C)cc1)C(C)(C)C		> 30 µM	> 30 µM	99.6%	93%	
COc1cc(OCCOCCOCCOCCOCCC(=O)N[C@H](C(=O)N2C[C@H](O)C[C@H]2C(=O)NCc2ccc(-c3scnc3C)cc2)C(C)(C)C)c(C)cc1-n1nnc(S(=O)(=O)c2ccc(C(C)(C)C)cc2)c1C	> 30 µM	> 30 µM	> 30 µM			
CCC[C@H](CC)Oc1ccc(C(=O)NCCOCCOCC(=O)N[C@H](C(=O)N2C[C@H](O)C[C@H]2C(=O)NCc2ccc(-c3scnc3C)cc2)C(C)(C)C)cc1NC(=O)c1nnn(-c2cc(OC)ccc2OC)c1C	> 30 µM	> 30 µM	> 30 µM	103%	89.7%	
COc1cc(OCCOCCOCCOCCC(=O)N[C@H](C(=O)N2C[C@H](O)C[C@H]2C(=O)NCc2ccc(-c3scnc3C)cc2)C(C)(C)C)c(C)cc1-n1nnc(S(=O)(=O)c2ccc(C(C)(C)C)cc2)c1C	> 30 µM	> 30 µM	> 30 µM			
COc1ccc(OC)c(-n2nnc(C(=O)Nc3cc(OCCCCCCOCCOCC(=O)N[C@H](C(=O)N4C[C@H](O)C[C@H]4C(=O)NCc4ccc(-c5scnc5C)cc4)C(C)(C)C)cc(C(C)(C)C)c3)c2C)c1		> 30 µM	> 30 µM	83.2%	68.2%	
CCC[C@H](CC)Oc1ccc(C(=O)OC)cc1NC(=O)c1nnn(-c2cc(OC)ccc2OC)c1C	> 30 µM	> 30 µM	> 30 µM	95.6%	94.9%	Active
CCC[C@H](CC)Oc1ccc(C(C)(C)C)cc1NC(=O)c1nnn(-c2cc(C)c(OCCCCCCOCCOCC(=O)N[C@H](C(=O)N3C[C@H](O)C[C@H]3C(=O)NCc3ccc(-c4scnc4C)cc3)C(C)(C)C)cc2OC)c1C		> 30 µM	> 30 µM	93.9%	104%	
